Measured values: US20060257441A1, “Natural essential oil sanitary insect pest repellent and its use” (SUZUKI YUSHI INDUSTRIAL CO., LTD., priority 2005, published 2006)

Tested on: Croton bug
Assay: Physiological activity (Croton bug repellency) test, Test Example 5
Assay type: in vivo
Details: 3% solution in 1:1 hexane/acetone
Text: A fraction 1 (16.192 g) of copaiba oil was given by silica gel column chromatography (replenishment silica gel: BW-127ZH, 350 g) using 3 liter of hexane as an elution solvent. A fraction 2 (2.868 g) was given by silica gel column chromatography (same as above) using a 4:4:1 mixture of hexane/chloroform/ethyl acetate as an elution solvent. A fraction 3 (1.401 g) was given by fractionating the remnant of the fraction 2 using a 1:1 solvent mixture of ethyl acetate/chloroform 21 as an elution solvent.
For comparison, the same test was conducted using copaiba oil and β-caryophyllene. The specimen was a 3% solution in the solvent. The solution was given using a 1:1 (volume ratio) mixture of hexane and acetone.

C=C1CC/C=C(\C)CC[C@@H]2[C@@H]1CC2(C)C [β-caryophyllene]
Repellency ratio (%) with time (4 hours): 96.2% | Repellency ratio (%) with time (24 hours): 70.6% | Repellency ratio (%) with time (48 hours): 52.6%
